Laboratory results taken from US11261466B2, “Homologous recombination factors” (Sinai Health System, priority 2015, dated 2022).

Tested on: USP11
Experiment: USP11 immunoblotting of irradiated U2OS cells (USP11 stability after DNA damage)
Format: cell-based
Conditions: irradiated (20 Gy), inhibitor at 5 μM, USP11 immunoblot, FIG. 11g
Method: FIG. 11. Characterization of USP11 protein stability a, U2OS cells synchronized in G1 or S/G2 were treated with cyclohexamide (CHX) and processed at the indicated time points to monitor USP11 stability. b, Immunoprecipitation (IP) of PALB2 from extracts prepared from 293T cells that were synchronized in G1 or S phase and treated or not with IR (20 Gy). c, U2OS cells were irradiated with a dose of 2 or 20 Gy and processed for USP11 immunoblotting at the indicated times post-IR. Actin was used as a loading control. d, U2OS cells, mock-treated or incubated with the ATM inhibitor KU55933 (ATMi), ATR inhibitor VE-821 (ATRi) or DNA-PKcs inhibitor NU7441 (DNAPKi), were irradiated (20 Gy) and processed for USP11 and actin (loading control) immunoblotting. e, Similar experiment to d except that cells were exposed to ultraviolet (UV) radiation (50 mJ/cm^−2). f, U2OS cells, mock-treated or incubated with the proteasome inhibitor MG132, were irradiated (20 Gy) and processed for USP11 and actin (loading control) immunoblotting. g, U2OS cells, mock-treated or incubated with the Cullin inhibitor MLN4924, were irradiated (20 Gy) and processed for USP11 and actin (loading control) immunoblotting. […]

## NS(=O)(=O)OC[C@@H]1C[C@@H](n2ccc3c(N[C@H]4CCc5ccccc54)ncnc32)C[C@@H]1O [MLN4924]
  DNA damage-induced degradation of USP11: protected USP11 from DNA damage-induced degradation
